Results published in patent US20260210939A1, “MODIFIED OLFACTORY RECEPTORS” (GIVAUDAN SA, priority 2022, published 2026).
“Also recorded” adds a separate entry of the source. One block for each molecule: values may come before it.

Key:
[1] = test system: library of all human class I OR; assay: Screening of the library of all class I OR (n=77, C-terminal domain SEQ ID NO: 741) with carboxylic acids, luciferase induction; assay type: cell-based; settings: full library of class I OR
Experimental: All human class I OR and all key genetic variants of these OR were synthesized with a sequence coding for the identical C-terminal domain […] (SEQ ID NO: 741) in the vector pcDNA3.1(+) to generate a library of all class I OR with an improved C-terminal domain.
Parallel transfection experiments were conducted with all these plasmids (n=77, SEQ ID NO: 760, OR51F1 was excluded due to poor plasmid yield) and cells expressing the different OR were stimulated with one given ligand at a time. In total 10 different carboxylic acids ligands were tested on the full library of class I receptors.

OR10J5 [2] = target: T1, OR10J5 (Homo sapiens, UniProt Q8NHC4); assay type: cell-based; settings: for EC20%: OR10J5 with SEQ ID NO: 86, relative to positive control 100 μM Mahonial
T1 construct: Improved functional expression of modified OR-genes containing the truncated, optimized C-terminus; expressed in transfected cells; host or cells: HEK293T stably expressing human RTP1S(V227I) and RTP2(L220R)
T1 sequence (Q8NHC4 with tags, fused parts or gaps): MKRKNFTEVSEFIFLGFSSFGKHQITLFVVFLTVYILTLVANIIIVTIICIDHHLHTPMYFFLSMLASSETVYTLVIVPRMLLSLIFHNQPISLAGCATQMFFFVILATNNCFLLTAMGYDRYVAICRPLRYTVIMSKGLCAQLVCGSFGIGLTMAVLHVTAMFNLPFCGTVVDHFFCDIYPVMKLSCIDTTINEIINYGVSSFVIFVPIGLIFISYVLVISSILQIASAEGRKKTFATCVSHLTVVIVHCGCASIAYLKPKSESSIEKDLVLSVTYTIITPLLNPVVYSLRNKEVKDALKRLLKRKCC
Experimental: Activation of OR10J5 with the C-terminal domain of SEQ ID NO: 86 by (S,E)-10-hydroxy-4,8-dimethyldec-4-enal or (R,E)-10-hydroxy-4,8-dimethyldec-4-enal was measured in a dose-response analysis.
Potency of the two tested OR10J5 ligands is expressed as the EC20% value, which is the concentration that leads to a 20% increase of the luciferase activity relative to the positive control (100 μM, Mahonial; (4E)-9-hydroxy-5,9-dimethyl-4-Decenal). […] Because of the difference in EC20%, a much lower concentration of the (S,E)-isomer is needed to activate the receptor compared to the concentration needed of the (R,E)-isomer. […] This example further illustrates the usefulness of the improved assay to determine the most odor-active isomers.

OR4S2 = target: T2, OR4S2 (Homo sapiens, UniProt Q8NH73, A290K); assay: cell-based; assay type: cell-based
T2 construct: Improved functional expression of modified OR-genes containing the truncated, optimized C-terminus; expressed in transfected cells; host or cells: HEK293T stably expressing human RTP1S(V227I) and RTP2(L220R)
T2 sequence (Q8NH73 with tags, fused parts or gaps A290K): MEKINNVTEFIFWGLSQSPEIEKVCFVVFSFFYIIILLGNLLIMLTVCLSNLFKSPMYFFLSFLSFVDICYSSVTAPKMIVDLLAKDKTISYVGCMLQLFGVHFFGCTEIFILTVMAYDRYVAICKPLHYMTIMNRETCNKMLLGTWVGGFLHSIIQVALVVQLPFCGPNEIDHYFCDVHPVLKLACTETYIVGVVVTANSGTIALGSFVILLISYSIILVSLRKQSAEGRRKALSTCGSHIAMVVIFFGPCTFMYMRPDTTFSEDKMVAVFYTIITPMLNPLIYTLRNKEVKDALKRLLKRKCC

OR52E8 = target: T3, OR52E8 (Homo sapiens, UniProt Q6IFG1); assay type: cell-based
T3 construct: Improved functional expression of modified OR-genes containing the truncated, optimized C-terminus; expressed in transfected cells; host or cells: HEK293T stably expressing human RTP1S(V227I) and RTP2(L220R)
T3 sequence (Q6IFG1 with tags, fused parts or gaps): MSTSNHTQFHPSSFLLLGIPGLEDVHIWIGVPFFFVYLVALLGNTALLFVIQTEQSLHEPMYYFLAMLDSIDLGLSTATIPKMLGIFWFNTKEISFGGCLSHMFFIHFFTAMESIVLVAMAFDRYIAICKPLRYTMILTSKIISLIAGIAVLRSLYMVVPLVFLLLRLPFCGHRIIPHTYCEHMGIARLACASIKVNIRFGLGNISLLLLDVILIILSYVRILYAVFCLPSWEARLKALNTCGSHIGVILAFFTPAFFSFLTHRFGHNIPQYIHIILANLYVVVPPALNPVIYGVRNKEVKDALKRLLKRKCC
Source text: Activation of OR52E8 by odorant acids present in human sweat (Natsch et al. A specific bacterial aminoacylase cleaves odorant precursors secreted in the human axilla. The Journal of biological chemistry 2003; 278(8):5718-5727) was investigated with different variants of the parent receptor sequence. The wild-type variant was not activated by the acids. […] However, using the optimized sequence from Examples 1-5 led to a strong signal upon addition of 3-methyl-3-hydroxy hexanoic acid.
These two improvements were further combined and the combination was tested on OR52A5 and two further class I receptors. […] In the case of OR52A4, 4-ethyloctanoic acid, which is detected at low concentrations by the human nose, is detected with a high luciferase response already at 0.19 μM by the receptor with the C-terminal modification showing very sensitive detection of this carboxylic acid by the modified class I receptor.

[3] = test system: human class II OR identified in the library screening; assay: Confirmatory dose-response analysis of library-hit OR with cognate ligand, wild-type vs C-terminal domain SEQ ID NO: 221 (Table 17);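 note: Wild-type receptor sequences expressed from the pcDNA3.1(+) vector and compared with the C-terminally modified receptors in dose-response tests using each receptor's cognate ligand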
Experimental: Selected ligand—OR pairs were then tested in a confirmatory test with a dose response analysis.
For selected receptors, the wild-type sequence was synthesized and cloned into pcDNA3.1 (+). Dose-response analysis with the cognate ligand was then performed for both the wild-type and the modified sequence.

[4] = test system: library of all human class II OR; assay: Screening of the library of all class II OR (n=408, C-terminal domain SEQ ID NO: 221) with single odorants, luciferase induction; assay type: cell-based
Experimental: All human class II OR and all key genetic variants of these OR were synthesized with a sequence coding for an identical modified C-terminal domain […] (SEQ ID NO: 221) in the vector pcDNA3.1(+) to generate a library of all class II OR with an improved C-terminal domain.
Parallel transfection experiments were conducted with all these plasmids (n=408) and cells expressing the different OR were stimulated with one given ligand at a time, tested at the maximal, clearly non-cytotoxic concentration. In total 26 different ligands were tested on the full library of class II receptors.

OR1C1 = target: T4, OR1C1 (Homo sapiens, UniProt Q15619); assay type: cell-based; settings: changed C-term. vs wild-type
T4 construct: Improved functional expression of modified OR-genes containing the truncated, optimized C-terminus; expressed in transfected cells; host or cells: HEK293T stably expressing human RTP1S(V227I) and RTP2(L220R)
T4 sequence (Q15619 with tags, fused parts or gaps): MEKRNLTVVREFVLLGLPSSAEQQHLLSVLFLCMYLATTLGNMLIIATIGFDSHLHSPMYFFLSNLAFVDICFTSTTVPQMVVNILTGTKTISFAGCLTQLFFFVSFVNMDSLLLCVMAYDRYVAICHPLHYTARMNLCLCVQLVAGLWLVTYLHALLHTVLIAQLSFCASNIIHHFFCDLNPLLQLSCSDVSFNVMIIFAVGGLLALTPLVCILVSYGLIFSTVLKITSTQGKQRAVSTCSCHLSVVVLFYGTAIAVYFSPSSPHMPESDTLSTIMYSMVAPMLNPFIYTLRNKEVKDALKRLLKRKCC

OR5AN1 = target: T5, OR5AN1 (Homo sapiens, UniProt Q8NGI8); assay: Luciferase assay with chimeric OR5AN1 carrying the C-terminal sequence of OR1N2; assay type: cell-based
T5 construct: Lucy part is a cleavable signal peptide) (N); expressed in transfected cells
T5 sequence (Q8NGI8 with tags, fused parts or gaps limits assumed): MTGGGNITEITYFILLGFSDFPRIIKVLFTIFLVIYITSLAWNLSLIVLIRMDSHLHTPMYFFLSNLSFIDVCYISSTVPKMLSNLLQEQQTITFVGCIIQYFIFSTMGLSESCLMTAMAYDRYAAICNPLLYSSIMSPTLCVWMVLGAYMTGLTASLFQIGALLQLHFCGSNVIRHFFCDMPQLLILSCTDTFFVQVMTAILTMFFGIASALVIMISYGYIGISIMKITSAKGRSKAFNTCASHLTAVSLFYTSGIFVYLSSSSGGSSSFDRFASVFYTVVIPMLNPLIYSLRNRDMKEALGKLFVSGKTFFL
Source text: Similarly, the C-terminal sequence of OR5AN1 was replaced with the C-terminal sequence of the ambrettolide receptor OR1N2.

OR5A2 = target: T6, OR5A2 (Homo sapiens, UniProt Q8NGI9); assay: CRE-luciferase assay, HEK293T cells expressing OR5A2 (wild-type / modified C-terminus); assay type: cell-based
T6 construct: Improved functional expression of modified OR-genes containing the truncated, optimized C-terminus; expressed in transfected cells; host or cells: HEK293T with stably integrated human RTP1S(V227I) and RTP2(L220R)
T6 sequence (Q8NGI9 with tags, fused parts or gaps): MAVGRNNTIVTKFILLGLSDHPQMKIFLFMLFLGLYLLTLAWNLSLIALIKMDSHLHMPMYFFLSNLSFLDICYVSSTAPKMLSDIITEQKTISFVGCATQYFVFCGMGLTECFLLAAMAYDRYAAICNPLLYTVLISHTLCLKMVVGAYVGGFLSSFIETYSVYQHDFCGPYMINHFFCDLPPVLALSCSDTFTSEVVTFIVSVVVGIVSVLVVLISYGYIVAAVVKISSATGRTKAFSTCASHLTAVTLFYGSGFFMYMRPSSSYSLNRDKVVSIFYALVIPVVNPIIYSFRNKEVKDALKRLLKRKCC

OR10J5 [5] = target: T1, OR10J5; assay type: cell-based; settings: changed C-term. vs wild-type
[6] = test system: library of human class II OR; assay: Screening of the class II OR library with a mixture of odorants of one odor description; assay type: cell-based; settings: OR with C-terminal domain SEQ ID NO: 221
Source text: Single odorants may trigger activation of multiple OR as shown by the case of Ambrofix in example 18, which activates the specific receptors OR7E24 and OR7A17. On the other hand, multiple odorants may be perceived as and described by certain common odor descriptors due to their common activation of a given set of OR. To trigger a specific odor sensation, thus a specific set of OR may need to be activated. This specific OR set can be identified by mixing several odorants with a given odor description. The mixture is then screened on the full library of OR. The identified set of OR can then be further used to screen for that particular odor description. For example, to identify a typical set of OR for the odor description of “fruity esters”, a mixture of the following compounds was made: Pentanoic acid, 2-methyl ethyl ester; Butanoic acid, 3-methyl-, ethyl ester; Acetic acid, phenoxy-, 2-propenyl ester; Hexanoic acid, ethyl ester; Acetic acid, (3-methylbutoxy)-, 2-propenyl ester; Acetic acid, (cyclohexyloxy)-, 2-propenyl ester; Butanoic acid, 2-methyl-, (3Z/E)-3-hexenyl ester; Cyclohexanecarboxylic acid, ethyl ester and Oxiranecarboxylic acid, 3-phenyl, ethyl ester. This mixture was screened against the full library of OR as described in example 18. […]

Molecule: CCC=C(C)C(=O)O [2-Methyl-2-pentenoic acid]
Activated OR and OR variants [1]: No activation observed

Molecule: C/C(=C\CC[C@@H](C)CCO)CCC=O [(R,E)-10-hydroxy-4,8-dimethyldec-4-enal]
EC20% (OR10J5 [2]): 24.4 µM

Molecule: c1ccc2scnc2c1 [Benzothiazole]
Comments on efficacy (OR4S2): 2-fold lower
Fold-improvement potency (OR4S2; changed C-term. vs wild-type): 1.3
Fold-improvement threshold (OR4S2; changed C-term. vs wild-type): 2.4
EC50 (OR4S2; wild-type): 137 µM

Molecule: C[C@H]1CC[C@@]2(O)C(C)(C)[C@@H]3CC[C@@]2(C)[C@H]1C3 [Patchoulol]
Detection threshold; concentration for 2-fold induction, changed C-term. ([3]; OR14J1, modified C-terminus SEQ ID NO: 221 (SEQ ID NO: 738)): 0.45 µM
Fold improvement efficacy ([3]; OR14J1, modified C-terminus SEQ ID NO: 221 vs wild-type, maximal induction): 33.4 fold
EC50 ([3]; read-out: Potency, EC50 changed C-term, OR14J1, modified C-terminus SEQ ID NO: 221 (SEQ ID NO: 738)): 2.2 µM
activity of the wild-type OR ([3]; wild-type sequence, cognate ligand): inactive
induction in the library screening ([4]; 50 μM Patchoulol): strong induction of OR14J1; also recorded: weak induction of OR11A1 and OR7A17

Molecule: C=CC(C)(O)CCC=C(C)C (stereo not drawn) [Linalool]
Fold-improvement potency (OR1C1): 1.9
Fold-improvement threshold (OR1C1): 2.1

Molecule: CC(=O)c1c(C)c([N+](=O)[O-])c(C(C)(C)C)c([N+](=O)[O-])c1C [Musk ketone]
functional response of chimeric OR5AN1 (OR5AN1): not showing any functional response

Molecule: CCCC(C)=CC(=O)O [3-Methyl-2-hexenoic acid]
Activated OR and OR variants [1]: strong induction of the OR51B2(C120R, L134F, C209S) variant but not of the wild-type variant of OR51B2

Molecule: C[C@@H]1CCCCCCCCCCCCC(=O)C1 [Muscone, reference compound]
concentration at which induction starts (OR5A2; OR5A2 with modified C-terminus): 0.03 µM
concentration at which activation occurs (OR5A2; modified OR5A2, SEQ ID NO: 86): 1 µM
functional response of chimeric OR5AN1 (OR5AN1): not showing any functional response
Activated OR and OR variants ([4]; ligand at maximal non-cytotoxic concentration, full class II library): OR5AN1, OR5A2

Molecule: Cc1cc(CC(C)C)ccc1CCC=O [Nympheal, 3-(4-isobutyl-2-methylphenyl)propanal]
Fold-improvement potency (OR10J5 [5]): >>6
Fold-improvement threshold (OR10J5 [5]): >>6
Comments on efficacy (OR10J5 [2]): Only 1.8-fold

B1: OR2L5: class II OR with C-terminal domain SEQ ID NO: 221 (protein, UniProt Q8NG80 1-312, looked up)
Olfactory receptor 2L5: MENYNQTSTDFILLGLFPPSKIGLFLFILFVLIFLMALIGNLSMILLIFLDTHLHTPMYFLLSQLSLIDLNYISTIVPKMASDFLYGNKSISFIGCGIQSFFFMTFAGAEALLLTSMAYDRYVAICFPLHYPIRMSKRMYVLMITGSWMIGSINSCAHTVYAFRIPYCKSRAINHFFCDVPAMLTLACTDTWVYEYTVFLSSTIFLVFPFTGIACSYGWVLLAVYRMHSAEGRKKAYSTCSTHLTVVTFYYAPFAYTYLCPRSLRSLTEDKVLAVFYTILTPMLNPIIYSLRNKEVMGALTRVIQNIFSVKM
Fold luciferase induction (20 ppm fruity ester mix) [6]: 8.9

Next, values leading:

Comments on efficacy (OR52E8): No induction
Fold-improvement potency (OR52E8; changed C-term. vs wild-type): >>5
Fold-improvement threshold (OR52E8; changed C-term. vs wild-type): >>5
Molecule: CCCC(C)(O)CC(=O)O (stereo not drawn) [3-Methyl-3-Hydroxy-Hexanoic acid, 3-Methyl-3-hydroxyhexanoic acid]

EC20% (OR10J5 [2]): 10.1 µM
Molecule: C/C(=C\CC[C@H](C)CCO)CCC=O [(S,E)-10-hydroxy-4,8-dimethyldec-4-enal]

Fold-improvement potency (OR10J5 [5]): 2.3
Molecule: C/C(=C\CCC=O)CCCC(C)(C)O [Mahonial, (4E)-9-hydroxy-5,9-dimethyl-4-Decenal]

Activated OR and OR variants [1]: No activation observed
Molecule: CC(C)CC(=O)O [3-Methylbutanoic acid]

Fold luciferase induction (20 ppm fruity ester mix) [6]: 7.2
B2: OR11G2: class II OR with C-terminal domain SEQ ID NO: 221 (protein, UniProt Q8NGC1 1-345, looked up)
Olfactory receptor 11G2: MHFLSQNDLNINLIPHLCLHRHSVIAGAFTIHRHMKIFNSPSNSSTFTGFILLGFPCPREGQILLFVLFTVVYLLTLMGNGSIICAVHWDQRLHAPMYILLANFSFLEICYVTSTVPSMLANFLSDTKIISFSGCFLQFYFFFSLGSTECFFLAVMAFDRYLAICRPLRYPTIMTRRLCTNLVVNCWVLGFIWFLIPIVNISQMSFCGSRIIDHFLCDPAPLLTLTCKKGPVIELVFSVLSPLPVFMLFLFIVGSYALVVRAVLRVPSAAGRRKAFSTCGSHLAVVSLFYGSVLVMYGSPPSKNEAGKQKTVTLFYSVVTPLLNPVIYSLRNKDMRKALKKFWGT
